From publication PMC10070635, “Targeting Enterococcus faecalis HMG-CoA reductase with a non-statin inhibitor” (Communications Biology, 2023)

Legend:
[1] = target: T1, Enterococcus faecalis HMG-CoA reductase (efHMGR) (Enterococcus faecalis, UniProt A0A4U3MLJ4); assay: X-ray co-crystal structure ([…] Å); type: binding
T1 construct: gene EY666_03235; C-terminal domain (residues 381-803) of the mvaE gene product, N-terminal 6X-His tag

[2] = target: T1, Enterococcus faecalis HMG-CoA reductase (efHMGR); assay: X-ray co-crystal structure ([…] Å); mevalonate oxidation enzyme assay with Ki (IC50 […]); type: biochemical
[3] = target: T1, Enterococcus faecalis HMG-CoA reductase (efHMGR); assay: mevalonate oxidation assay, NADPH absorbance at […] nm; […] inhibition at […]; type: biochemical
[4] = target: T1, Enterococcus faecalis HMG-CoA reductase (efHMGR); assay: X-ray crystal structure ([…] Å); type: binding

With CC(C)(COP(=O)(O)OP(=O)(O)OC[C@H]1O[C@@H](n2cnc3c(N)ncnc32)[C@H](O)[C@@H]1OP(=O)(O)O)[C@@H](O)C(=O)NCCC(=O)NCCSC(=O)C[C@@](C)(O)CC(=O)O [HMG-CoA] the “X-ray co-crystal structure (2.27 Å)” value [1] was “HMG-CoA binds to the large domain of one monomer and NADP^+ to small domain of the other monomer”.
For NC(=O)c1ccc[n+]([C@@H]2O[C@H](COP(=O)(O)OP(=O)(O)OC[C@H]3O[C@@H](n4cnc5c(N)ncnc54)[C@H](OP(=O)(O)O)[C@@H]3O)[C@@H](O)[C@H]2O)c1 [NADP+], the “X-ray co-crystal structure (2.27 Å)” value [1] was “NADP^+ is present in all the active sites and HMG-CoA in only one”.
CCCCc1ccc(NS(=O)(=O)c2ccc(O)c(C(=O)O)c2)cc1 [compound 315, 5-{[(4-butylphenyl)amino]sulfonyl}-2-hydroxybenzoic acid] was tested, and the Ki [2] was 2 µM.
With CC[C@H](C)C(=O)O[C@H]1C[C@@H](C)C=C2C=C[C@H](C)[C@H](CC[C@@H]3C[C@@H](O)CC(=O)O3)[C@H]21 [lovastatin] the inhibition at 50 µM [3] was 32%.
C[C@@](O)(CCO)CC(=O)O [mevalonate] was tested, and the “X-ray crystal structure (2.27 Å)” value [4] was “Density consistent with mevalonate is also found in one of the active sites”.
